Source: patent US8916573B2, “Quinazoline-2,4-dione derivatives” (Actelion Pharmaceuticals Ltd., priority 2011, dated 2014)
In brackets after ≈: the same amount, converted by molar mass.

Each compound was assayed on S. aureus 29213 (assay: Bacterial growth minimal inhibitory concentrations (microdilution, cation-adjusted Mueller-Hinton Broth, CLSI M7-A7)). Conditions: Staphylococcus aureus, 29213; microdilution in cation-adjusted Mueller-Hinton Broth.
Type: cell-based
Description: Bacterial Growth Minimal Inhibitory Concentrations: Minimal inhibitory concentrations (MICs; mg/l) were determined in cation-adjusted MuellerHinton Broth by a microdilution method following the description given in “Methods for Dilution Antimicrobial Susceptibility Tests for Bacteria that Grow Aerobically”, Approved standard, 7th ed., Clinical and Laboratory Standards Institute (CLSI) Document M7-A7, Wayne, Pa., USA, 2006. Typical antibacterial test results are given in Table 1 hereafter (MIC in mg/l).

Row | Structure (SMILES) | MIC [µg/mL]
1 | O=C1CSc2ccc(N3C[C@@H](CCCn4c(=O)[nH]c5ccc(F)cc5c4=O)OC3=O)cc2N1 [Example 26, 6-fluoro-3-{3-[(R)-2-oxo-3-(3-oxo-3,4-dihydro-2H-benzo[1,4]thiazin-6-yl)-oxazolidin-5-yl]-propyl}-1H-quinazoline-2,4-dione] | 0.031 (≈ 0.0659 µM)
2 | O=C1CSc2ccc(N3C[C@@H](CCCn4c(=O)[nH]c5cc(Cl)ccc5c4=O)OC3=O)cc2N1 [Example 27, 7-chloro-3-{3-[(R)-2-oxo-3-(3-oxo-3,4-dihydro-2H-benzo[1,4]-thiazin-6-yl)-oxazolidin-5-yl]-propyl}-1H-quinazoline-2,4-dione] | 0.063 (≈ 0.129 µM)
3 | O=C1CSc2ccc(N3C[C@@H](CCCn4c(=O)[nH]c5cc(F)ccc5c4=O)OC3=O)cc2N1 [Example 28, 7-fluoro-3-{3-[(R)-2-oxo-3-(3-oxo-3,4-dihydro-2H-benzo[1,4]thiazin-6-yl)-oxazolidin-5-yl]-propyl}-1H-quinazoline-2,4-dione] | 0.063 (≈ 0.134 µM)
4 | O=C1CSc2ccc(N3C[C@H](CCCn4c(=O)[nH]c5c(Cl)cccc5c4=O)OC3=O)cc2N1 [Example 29, 8-chloro-3-{3-[(S)-2-oxo-3-(3-oxo-3,4-dihydro-2H-benzo[1,4]-thiazin-6-yl)-oxazolidin-5-yl]-propyl}-1H-quinazoline-2,4-dione] | ≤ 0.016
5 | Cn1c(=O)n(CCNCC[C@@H]2CN(c3ccc4c(c3)NC(=O)CS4)C(=O)O2)c(=O)c2cccc(Cl)c21 [Example 30, 8-chloro-1-methyl-3-(2-{2-[(R)-2-oxo-3-(3-oxo-3,4-dihydro-2H-benzo[1,4]thiazin-6-yl)-oxazolidin-5-yl]-ethylamino}-ethyl)-1H-quinazoline-2,4-dione] | 0.125 (≈ 0.236 µM)
6 | Cn1c(=O)n(CCC[C@H]2CN(c3ccc4c(c3)NC(=O)CS4)C(=O)O2)c(=O)c2cccc(Cl)c21 [Example 31, 8-chloro-1-methyl-3-{3-[(S)-2-oxo-3-(3-oxo-3,4-dihydro-2H-benzo[1,4]thiazin-6-yl)-oxazolidin-5-yl]-propyl}-1H-quinazoline-2,4-dione] | ≤ 0.016
7 | O=C1CSc2ccc(N3C[C@@H](CCCn4c(=O)[nH]c5c(F)cccc5c4=O)OC3=O)cc2N1 [Example 32, 8-fluoro-3-{3-[(R)-2-oxo-3-(3-oxo-3,4-dihydro-2H-benzo[1,4]thiazin-6-yl)-oxazolidin-5-yl]-propyl}-1H-quinazoline-2,4-dione] | 0.031 (≈ 0.0659 µM)
8 | COc1cccc2[nH]c(=O)n(CCC[C@@H]3CN(c4ccc5c(c4)NC(=O)CS5)C(=O)O3)c(=O)c12 [Example 33, 5-methoxy-3-{3-[(R)-2-oxo-3-(3-oxo-3,4-dihydro-2H-benzo[1,4]-thiazin-6-yl)-oxazolidin-5-yl]-propyl}-1H-quinazoline-2,4-dione] | 0.125 (≈ 0.259 µM)
9 | COc1ccc2[nH]c(=O)n(CCC[C@@H]3CN(c4ccc5c(c4)NC(=O)CS5)C(=O)O3)c(=O)c2c1 [Example 34, 6-methoxy-3-{3-[(R)-2-oxo-3-(3-oxo-3,4-dihydro-2H-benzo[1,4]-thiazin-6-yl)-oxazolidin-5-yl]-propyl}-1H-quinazoline-2,4-dione] | 0.063 (≈ 0.131 µM)
10 | COc1ccc2c(=O)n(CCC[C@H]3CN(c4ccc5c(c4)NC(=O)CS5)C(=O)O3)c(=O)[nH]c2c1 [Example 35, 7-methoxy-3-{3-[(S)-2-oxo-3-(3-oxo-3,4-dihydro-2H-benzo[1,4]-thiazin-6-yl)-oxazolidin-5-yl]-propyl}-1H-quinazoline-2,4-dione] | 0.125 (≈ 0.259 µM)
11 | COc1cccc2c(=O)n(CCC[C@@H]3CN(c4ccc5c(c4)NC(=O)CS5)C(=O)O3)c(=O)[nH]c12 [Example 36, 8-methoxy-3-{3-[(R)-2-oxo-3-(3-oxo-3,4-dihydro-2H-benzo[1,4]-thiazin-6-yl)-oxazolidin-5-yl]-propyl}-1H-quinazoline-2,4-dione] | 0.031 (≈ 0.0642 µM)
12 | O=C1CSc2ccc(N3C[C@H](CCCn4c(=O)[nH]c5ccc(N6CCCC6)cc5c4=O)OC3=O)cc2N1 [Example 37, 3-{3-[(S)-2-oxo-3-(3-oxo-3,4-dihydro-2H-benzo[1,4]-thiazin-6-yl)-oxazolidin-5-yl]-propyl}-6-pyrrolidin-1-yl-1H-quinazoline-2,4-dione] | 0.5 (≈ 0.959 µM)
13 | O=C1CSc2ccc(N3C[C@@H](CCCn4c(=O)[nH]c5cc(F)c(F)cc5c4=O)OC3=O)cc2N1 [Example 38, 6,7-difluoro-3-{3-[(R)-2-oxo-3-(3-oxo-3,4-dihydro-2H-benzo[1,4]thiazin-6-yl)-oxazolidin-5-yl]-propyl}-1H-quinazoline-2,4-dione] | 0.063 (≈ 0.129 µM)
14 | COc1cc2[nH]c(=O)n(CCC[C@@H]3CN(c4ccc5c(c4)NC(=O)CS5)C(=O)O3)c(=O)c2cc1OC [Example 39, 6,7-dimethoxy-3-{3-[(R)-2-oxo-3-(3-oxo-3,4-dihydro-2H-benzo[1,4]thiazin-6-yl)-oxazolidin-5-yl]-propyl}-1H-quinazoline-2,4-dione] | 0.25 (≈ 0.488 µM)
15 | O=C1CSc2ccc(N3C[C@H](CCCn4c(=O)[nH]c5c(Cl)ccc(Cl)c5c4=O)OC3=O)cc2N1 [Example 40, 5,8-dichloro-3-{3-[(S)-2-oxo-3-(3-oxo-3,4-dihydro-2H-benzo[1,4]thiazin-6-yl)-oxazolidin-5-yl]-propyl}-1H-quinazoline-2,4-dione] | ≤ 0.016
16 | O=C1CSc2ccc(N3C[C@@H](CCCn4c(=O)c5cccc6c5n(c4=O)CCC6)OC3=O)cc2N1 [Example 41, 2-{3-[(R)-2-oxo-3-(3-oxo-3,4-dihydro-2H-benzo[1,4]thiazin-6-yl)-oxazolidin-5-yl]-propyl}-6,7-dihydro-5H-pyrido[3,2,1-ij]quinazoline-1,3-dione] | 0.25 (≈ 0.508 µM)
17 | O=C1CSc2ccc(N3C[C@H](CCCn4c(=O)[nH]c5cc6ccccc6cc5c4=O)OC3=O)cc2N1 [Example 42, 3-{3-[(S)-2-oxo-3-(3-oxo-3,4-dihydro-2H-benzo[1,4]-thiazin-6-yl)-oxazolidin-5-yl]-propyl}-1H-benzo[g]quinazoline-2,4-dione] | 0.031 (≈ 0.0617 µM)
18 | COc1c(F)c(F)cc2c(=O)n(CCC[C@H]3CN(c4ccc5c(c4)NC(=O)CS5)C(=O)O3)c(=O)n(C3CC3)c12 [Example 43, 1-cyclopropyl-6,7-difluoro-8-methoxy-3-{3-[(S)-2-oxo-3-(3-oxo-3,4-dihydro-2H-benzo[1,4]thiazin-6-yl)-oxazolidin-5-yl]-propyl}-1H-quinazoline-2,4-dione] | ≤ 0.016
19 | O=C1CSc2ccc(N3C[C@H](CCCn4c(=O)c5cccc6c5n(c4=O)CCC6)OC3=O)cc2N1 [Example 44, 2-{3-[(S)-2-oxo-3-(3-oxo-3,4-dihydro-2H-benzo[1,4]thiazin-6-yl)-oxazolidin-5-yl]-propyl}-6,7-dihydro-5H-pyrido[3,2,1-ij]quinazoline-1,3-dione] | ≤ 0.016
20 | O=C1COc2ccc(N3C[C@H](CCCn4c(=O)c5cccc6c5n(c4=O)CCC6)OC3=O)nc2N1 [Example 45, 2-{3-[(S)-2-oxo-3-(3-oxo-3,4-dihydro-2H-pyrido[3,2-b][1,4]oxazin-6-yl)-oxazolidin-5-yl]-propyl}-6,7-dihydro-5H-pyrido[3,2,1-ij]quinazoline-1,3-dione] | ≤ 0.016
21 | Cn1c(=O)n(CCC[C@@H]2CN(c3ccc4c(c3)NC(=O)CS4)C(=O)O2)c(=O)c2ccc(Br)cc21 [Example 46, 7-bromo-1-methyl-3-{3-[(R)-2-oxo-3-(3-oxo-3,4-dihydro-2H-benzo[1,4]thiazin-6-yl)-oxazolidin-5-yl]-propyl}-1H-quinazoline-2,4-dione] | ≤ 0.016
